Laboratory results from patent publication US11230683B2 (priority 2020, dated 2022).
Values joined by “and” are separate entries in the source; they are usually repeats but may differ in a detail not shown here. Identical values can stand only once. Like-named read-outs stand apart in the source and are kept apart here.

How the values were obtained:
[1] = biological target: T1, human erythrocyte AChE (hAChE) (Homo sapiens, UniProt P22303); assay: biochemical; type: biochemical
T1 construct: The human erythrocyte AChE (hAChE, aqueous buffer solution); purchased Sigma Aldrich; host or cells: human erythrocytes

[2] = biological target: T2, BuChE from equine serum (eqBuChE) (Equus caballus, UniProt P81908); assay: biochemical; type: biochemical
T2 construct: The BuChE freeze-dried from equine serum (eqBuChE, Sigma Aldrich); purchased Sigma Aldrich; host or cells: equine serum
T2 sequence (P81908 whole entry): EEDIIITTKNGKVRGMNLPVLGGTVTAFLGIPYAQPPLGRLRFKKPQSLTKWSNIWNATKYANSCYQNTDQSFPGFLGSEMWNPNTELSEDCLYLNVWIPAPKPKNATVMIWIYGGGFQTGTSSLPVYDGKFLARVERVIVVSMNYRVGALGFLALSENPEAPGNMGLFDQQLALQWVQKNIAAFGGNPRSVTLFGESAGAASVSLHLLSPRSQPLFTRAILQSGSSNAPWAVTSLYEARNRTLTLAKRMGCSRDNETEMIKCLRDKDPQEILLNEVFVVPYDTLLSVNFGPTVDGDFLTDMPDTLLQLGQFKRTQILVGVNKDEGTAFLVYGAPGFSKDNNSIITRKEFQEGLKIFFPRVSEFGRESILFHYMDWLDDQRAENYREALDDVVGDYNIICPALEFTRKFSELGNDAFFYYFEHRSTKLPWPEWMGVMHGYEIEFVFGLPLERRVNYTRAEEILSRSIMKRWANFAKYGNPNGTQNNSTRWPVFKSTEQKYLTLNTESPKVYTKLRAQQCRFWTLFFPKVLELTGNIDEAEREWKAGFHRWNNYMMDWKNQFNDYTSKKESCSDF

T1 sequence (P22303 32-617 isoform P22303-2 limits assumed): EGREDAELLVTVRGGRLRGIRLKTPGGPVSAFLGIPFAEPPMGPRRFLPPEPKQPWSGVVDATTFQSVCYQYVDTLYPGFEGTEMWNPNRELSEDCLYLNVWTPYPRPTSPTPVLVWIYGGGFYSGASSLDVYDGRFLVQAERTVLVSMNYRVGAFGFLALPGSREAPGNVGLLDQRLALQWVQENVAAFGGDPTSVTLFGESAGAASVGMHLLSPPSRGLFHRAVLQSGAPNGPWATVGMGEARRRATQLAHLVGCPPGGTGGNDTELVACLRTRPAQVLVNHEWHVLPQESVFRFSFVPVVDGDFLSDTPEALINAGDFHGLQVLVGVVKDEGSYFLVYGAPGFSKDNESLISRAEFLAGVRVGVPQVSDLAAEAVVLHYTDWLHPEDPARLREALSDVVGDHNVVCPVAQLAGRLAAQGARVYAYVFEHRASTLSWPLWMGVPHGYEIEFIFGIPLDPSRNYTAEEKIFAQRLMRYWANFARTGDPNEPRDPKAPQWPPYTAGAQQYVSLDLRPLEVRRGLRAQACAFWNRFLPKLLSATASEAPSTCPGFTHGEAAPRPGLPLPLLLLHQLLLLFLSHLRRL

Molecule | IC50 ([1]; IC50 hAChE) | IC50 ([2]; IC50 eqBuChE) | also measured
O=P(Oc1ccccc1)(Oc1ccccc1)Oc1ccc(OP(=O)(Oc2ccccc2)Oc2ccccc2)cc1 [Compound 1, Hydroquinone bis(diphenylphosphate)] | 42 µM | 186 µM | 
O=P(Oc1ccccc1)(Oc1ccccc1)Oc1ccc(-c2ccc(OP(=O)(Oc3ccccc3)Oc3ccccc3)cc2)cc1 [Compound 2, 4,4′-dihydroxybiphenyl bis(diphenylphosphate)] | 38.4 µM and 128 µM | 155 µM and 244 µM | 
Saligenin cresyl phosphate [Compound J] |  |  | IC50 eqBuChE [2]: 0.7 mg/L
NP(=O)(Oc1ccccc1)Oc1ccccc1 [Compound K, Diphenyl phosphoroamidate] |  |  | IC50 [1]: 38.1 µM; IC50 [2]: 136 µM
O=P(Oc1ccccc1)(Oc1ccccc1)Oc1ccc(Sc2ccc(OP(=O)(Oc3ccccc3)Oc3ccccc3)cc2)cc1 [Compound 3, 4,4′-dihydroxydiphenylthioether bis(diphenylphosphate)] | 34 µM | 166 µM | 
CCCCC(CC)(COP(=O)(Oc1ccccc1)Oc1ccccc1)COP(=O)(Oc1ccccc1)Oc1ccccc1 [Compound 6, 2-butyl-2-ethyl-1,3-propanediol bis(diphenylphosphate)] | 26.3 µM | 93.7 µM | 
Cc1ccc(OP(=O)(Oc2ccc(C)cc2)Oc2ccc(C)cc2)cc1 [Compound D, Tri(para-cresyl)phosphate] | 26.3 µM | 116 µM | 
Cc1cccc(OP(=O)(Oc2cccc(C)c2)Oc2cccc(C)c2)c1 [Compound C, Tri(meta-cresyl)phosphate] | 25.2 µM | 6.24 µM | 
O=P(Oc1ccccc1)(Oc1ccccc1)Oc1cc(OP(=O)(Oc2ccccc2)Oc2ccccc2)cc(OP(=O)(Oc2ccccc2)Oc2ccccc2)c1 [Compound 5, 1,3,5-phloroglucinol tris(bis(diphenylphosphate))] |  | 100 µM | 
CCCCC(CC)COP(=O)(Oc1ccccc1)Oc1ccccc1 (stereo not drawn) [Compound A, 2-ethylhexyl diphenylphosphate] | 35 µM | 1.93 µM | 
Tricresyl phosphate [Compound P] |  |  | IC50 hAChE [1]: 16.9 mg/L; IC50 eqBuChE [2]: 0.7 mg/L
O=P(OCCCl)(OCCCl)OCCCl [Compound N, tris(chloroethyl)phosphate] | 28.7 µM | 315 µM | 
Cc1ccccc1OP(=O)(Oc1ccccc1C)Oc1ccccc1C [Compound B, Tri(ortho-cresyl)phosphate] | 40.7 µM | 10 µM | 
O=P(Oc1c(F)cccc1F)(Oc1c(F)cccc1F)Oc1c(F)cccc1F [Compound F, Tri(2,6-difluorophenyl)phosphate] | 12.9 µM | 20 µM | 
O=P(Oc1ccccc1)(Oc1ccccc1)Oc1ccc(Oc2ccc(OP(=O)(Oc3ccccc3)Oc3ccccc3)cc2)cc1 [Compound 4, 4,4′-dihydroxydiphenylether bis(diphenylphosphate)] | 33.9 µM | 118 µM | 
CC(C)(C)c1ccc(OP(=O)(Oc2ccc(C(C)(C)C)cc2)Oc2ccc(C(C)(C)C)cc2)cc1 [Compound I, Tri(p-tert-butylphenyl)phosphate] | 17 µM | 194 µM | action on acetylcholinesterase, in words [1]: active; action on butyrylcholinesterase, in words [2]: reduced inhibition
CC(C)(C)c1ccc(OP(=O)(Oc2ccccc2)Oc2ccc(C(C)(C)C)cc2)cc1 [Compound H, di(p-tertbutylphenyl)phenylphosphate] | 27.6 µM | 280 µM | 
CCC(COP(=O)(Oc1ccccc1)Oc1ccccc1)(COP(=O)(Oc1ccccc1)Oc1ccccc1)COP(=O)(Oc1ccccc1)Oc1ccccc1 [Compound 7, trimethylolpropane tris(diphenylphosphate)] | 22 µM | 145 µM | 
